Results published in patent EP0319906A2, “Novel quinoline derivatives, processes for preparation thereof and antibacterial agent containing them” (Dainippon Pharmaceutical Co., Ltd., priority 1987, dated 1989).
In brackets after ≈: the same amount, converted by molar mass.

Columns and labels:
[1] = tested on: E. coli NIHJ JC-2; assay: In vitro antibacterial activity, twofold agar-dilution MIC; type: cell-based; conditions: Escherichia coli, NIHJJC2; E. coli NIHJ JC-2; Mueller-Hinton agar, 20-hour incubation at 37 °C; calculated for free base; read-out: minimum inhibitory concentrations (MIC)
Procedure: (§1) The figures in the table show minimum inhibitory concentrations (MIC) (µg/ml), calculated for free base. […] One loopful of an overnight culture of test organisms in Mueller-Hinton broth was inoculated onto 10 ml drug- containing agar layers in petri dishes. Bacterial inocula contained approximately 10⁶ colonyl-forming units. […] The MIC was defined as the lowest drug concentration which prevented visible bacterial growth.

[2] = tested on: P. aeruginosa 12; assay: as above; type: cell-based; conditions: Pseudomonas aeruginosa; P. aeruginosa 12; Mueller-Hinton agar, 20-hour incubation at 37 °C; calculated for free base; read-out: minimum inhibitory concentrations (MIC)
Procedure: as §1

[3] = tested on: S. aureus 209 JC-1; assay: as above; type: cell-based; conditions: Staphylococcus aureus, 209JC1; S. aureus 209 JC-1; Mueller-Hinton agar, 20-hour incubation at 37 °C; calculated for free base; read-out: minimum inhibitory concentrations (MIC)
Procedure: as §1

[4] = tested on: S. marcescens S-9; assay: as above; type: cell-based; conditions: Serratia marcescens, S9; S. marcescens S-9; Mueller-Hinton agar, 20-hour incubation at 37 °C; calculated for free base; read-out: minimum inhibitory concentrations (MIC)
Procedure: as §1

[5] = tested on: S. pyogenes A65; assay: as above; type: cell-based; conditions: Streptococcus pyogenes; S. pyogenes A65; Mueller-Hinton agar, 20-hour incubation at 37 °C; calculated for free base; read-out: minimum inhibitory concentrations (MIC)
Procedure: as §1

[6] = tested on: S. epidermidis No. 8; assay: as above; type: cell-based; conditions: Staphylococcus epidermidis; S. epidermidis No. 8; Mueller-Hinton agar, 20-hour incubation at 37 °C; calculated for free base; read-out: minimum inhibitory concentrations (MIC)
Procedure: as §1

[7] = tested on: S. aureus No. 80; assay: as above; type: cell-based; conditions: Staphylococcus aureus; S. aureus No. 80; Mueller-Hinton agar, 20-hour incubation at 37 °C; calculated for free base; read-out: minimum inhibitory concentrations (MIC)
Procedure: as §1

[8] = tested on: E. coli P-5101; assay: as above; type: cell-based; conditions: Escherichia coli, P5101; E. coli P-5101; Mueller-Hinton agar, 20-hour incubation at 37 °C; calculated for free base; read-out: minimum inhibitory concentrations (MIC)
Procedure: as §1

[9] = tested on: S. aureus Terajima; assay: as above; type: cell-based; conditions: Staphylococcus aureus; S. aureus Terajima; Mueller-Hinton agar, 20-hour incubation at 37 °C; calculated for free base; read-out: minimum inhibitory concentrations (MIC)
Procedure: as §1

[10] = tested on: M. orale CH-19299; assay: Antimycoplasma activity, twofold agar dilution MIC; type: cell-based; conditions: po, 48 h; M. orale CH-19299; Chanock agar, 37 °C for 2 days, anaerobically; calculated for free base; read-out: minimum inhibitory concentrations (MIC)
Procedure: (§2) The figures in the table show minimum inhibitory concentrations (MIC), (μg/ml), calculated for free base. Minimum inhibitory concentrations (MIC) were determined by the twofold agar dilution method. The media used were Chanock broth and agar [PPLD broth and agar (Difco) supplemented with 20 % horse serum and 10 % fresh yeast extract]. A 2-3 day broth culture of organisms was diluted with Chanock broth to a cell density of about 10^6 cells/ml. One loopful (about […]) of the organism dilution was spotted onto 10-ml drug containing Chanock agar in petri dishes using a multiple inoculator ([…] International). […] Incubation was performed anaerobically using the […] anaerobic system (BBL) for M. buccale, M. fermentans, M. hominis, M. orale and M. salivarium, and aerobically for other Mycoplasma spp. The MIC was defined as the lowest compound concentration at which no growth of organism was detected.

[11] = tested on: M. hyorhinis BST-7; assay: Antimycoplasma activity, twofold agar dilution MIC; type: cell-based; conditions: Mesomycoplasma hyorhinis, BST7, 48 h; M. hyorhinis BST-7; Chanock agar, 37 °C for 2 days, aerobically; calculated for free base; read-out: minimum inhibitory concentrations (MIC)
Procedure: as §2

[12] = tested on: M. buccale CH-20249; assay: Antimycoplasma activity, twofold agar dilution MIC; type: cell-based; conditions: 48 h; M. buccale CH-20249; Chanock agar, 37 °C for 2 days, anaerobically; calculated for free base; read-out: minimum inhibitory concentrations (MIC)
Procedure: as §2

[13] = tested on: M. hominis PG-21; assay: Antimycoplasma activity, twofold agar dilution MIC; type: cell-based; conditions: Metamycoplasma hominis, PG21, 48 h; M. hominis PG-21; Chanock agar, 37 °C for 2 days, anaerobically; calculated for free base; read-out: minimum inhibitory concentrations (MIC)
Procedure: as §2

[14] = tested on: M. fermentans PG-18; assay: Antimycoplasma activity, twofold agar dilution MIC; type: cell-based; conditions: Mycoplasmopsis fermentans, PG18, 48 h; M. fermentans PG-18; Chanock agar, 37 °C for 2 days, anaerobically; calculated for free base; read-out: minimum inhibitory concentrations (MIC)
Procedure: as §2

[15] = tested on: A. laidlawii PG-8; assay: Antimycoplasma activity, twofold agar dilution MIC; type: cell-based; conditions: Acholeplasma laidlawii, PG8, 48 h; A. laidlawii PG-8; Chanock agar, 37 °C for 2 days, aerobically; calculated for free base; read-out: minimum inhibitory concentrations (MIC)
Procedure: as §2

[16] = tested on: M. arginini G-230; assay: Antimycoplasma activity, twofold agar dilution MIC; type: cell-based; conditions: 48 h; M. arginini G-230; Chanock agar, 37 °C for 2 days, aerobically; calculated for free base; read-out: minimum inhibitory concentrations (MIC)
Procedure: as §2

[17] = tested on: M. salivarium PG-20; assay: Antimycoplasma activity, twofold agar dilution MIC; type: cell-based; conditions: 48 h; M. salivarium PG-20; Chanock agar, 37 °C for 2 days, anaerobically; calculated for free base; read-out: minimum inhibitory concentrations (MIC)
Procedure: as §2

[18] = tested on: M. pneumoniae Mac; assay: Antimycoplasma activity, twofold agar dilution MIC; type: cell-based; conditions: Mycoplasmoides pneumoniae, 168 h; M. pneumoniae Mac; Chanock agar, 37 °C for 7 days, aerobically; calculated for free base; read-out: minimum inhibitory concentrations (MIC)
Procedure: as §2

[19] = Urinary excretion in mice; type: in vivo
Procedure: A suspension containing Compound 1 was orally administered to mace at a dose of 5 mg/kg. Urine was collected over a period of 24 hours after administration. The level of the compound in urine was determined by the thin-layer cup-plated method using Escherichia coli kp as an indicator organism.

## Cc1c(F)c(N2C[C@@H](C)N[C@@H](C)C2)c(F)c2c1c(=O)c(C(=O)O)cn2C1CC1 [Compound 1, 1-cyclopropyl-6,8-difluoro-5-methyl-7-(cis-3,5-demethyl-1-piperazinyl)-1,4-dihydro-4-oxoquinoline-3-carboxylic acid]
[1]
  MIC: 0.025 µg/mL (≈ 0.0639 µM)
[2]
  MIC: 0.2 µg/mL (≈ 0.511 µM)
[3]
  MIC: 0.05 µg/mL (≈ 0.128 µM)
[4]
  MIC: 0.39 µg/mL (≈ 0.996 µM)
[5]
  MIC: 0.2 µg/mL (≈ 0.511 µM)
[6]
  MIC: 0.025 µg/mL (≈ 0.0639 µM)
[7]
  MIC: 0.0125 µg/mL (≈ 0.0319 µM)
[8]
  MIC: 0.025 µg/mL (≈ 0.0639 µM)
[9]
  MIC: 0.05 µg/mL (≈ 0.128 µM)
[10]
  MIC: 0.2 µg/mL (≈ 0.511 µM)
[11]
  MIC: 0.025 µg/mL (≈ 0.0639 µM)
[12]
  MIC: 0.025 µg/mL (≈ 0.0639 µM)
[13]
  MIC: 0.05 µg/mL (≈ 0.128 µM)
[14]
  MIC: 0.025 µg/mL (≈ 0.0639 µM)
[15]
  MIC: 0.05 µg/mL (≈ 0.128 µM)
[16]
  MIC: 0.025 µg/mL (≈ 0.0639 µM)
[17]
  MIC: 0.1 µg/mL (≈ 0.255 µM)
[18]
  MIC: 0.05 µg/mL (≈ 0.128 µM)
[19]; amount in urine over 24 hours after oral 5 mg/kg
  Amount: 0.105 mg
[19]; mouse, in vivo, oral 5 mg/kg, mice, read-out: Urinary recovery for 24 hours
  dose excreted at 24 h: 12.7%
[19]; urine collected over 24 hours after oral 5 mg/kg
  Volume: 14.0 mL
